According to patent publication US10710994B2, “Oxadiazole transient receptor potential channel inhibitors” (Genentech, Inc., priority 2018, dated 2020):
Like-named read-outs stand apart in the source and are kept apart here.

Target: human TRPA1 channel (Homo sapiens (Human), UniProt O75762)
Assay: hTRPA1 CHO Ca2+ FLIPR Tetra assay: block of cinnamaldehyde induced calcium influx
Type: cell-based
Settings: CHO cells expressing TRPA1, Hill coefficient fixed to 1.5
Summary of the method: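 TRPA1-expressing CHO cells loaded with calcium indicator dye (1 h 37° C, then 15 min room temperature) in HBSS/20 mM HEPES pH 7.4/0.02% BSA. IC50 from fits with fixed Hill coefficient.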

Sequence of human TRPA1 channel (O75762 whole entry): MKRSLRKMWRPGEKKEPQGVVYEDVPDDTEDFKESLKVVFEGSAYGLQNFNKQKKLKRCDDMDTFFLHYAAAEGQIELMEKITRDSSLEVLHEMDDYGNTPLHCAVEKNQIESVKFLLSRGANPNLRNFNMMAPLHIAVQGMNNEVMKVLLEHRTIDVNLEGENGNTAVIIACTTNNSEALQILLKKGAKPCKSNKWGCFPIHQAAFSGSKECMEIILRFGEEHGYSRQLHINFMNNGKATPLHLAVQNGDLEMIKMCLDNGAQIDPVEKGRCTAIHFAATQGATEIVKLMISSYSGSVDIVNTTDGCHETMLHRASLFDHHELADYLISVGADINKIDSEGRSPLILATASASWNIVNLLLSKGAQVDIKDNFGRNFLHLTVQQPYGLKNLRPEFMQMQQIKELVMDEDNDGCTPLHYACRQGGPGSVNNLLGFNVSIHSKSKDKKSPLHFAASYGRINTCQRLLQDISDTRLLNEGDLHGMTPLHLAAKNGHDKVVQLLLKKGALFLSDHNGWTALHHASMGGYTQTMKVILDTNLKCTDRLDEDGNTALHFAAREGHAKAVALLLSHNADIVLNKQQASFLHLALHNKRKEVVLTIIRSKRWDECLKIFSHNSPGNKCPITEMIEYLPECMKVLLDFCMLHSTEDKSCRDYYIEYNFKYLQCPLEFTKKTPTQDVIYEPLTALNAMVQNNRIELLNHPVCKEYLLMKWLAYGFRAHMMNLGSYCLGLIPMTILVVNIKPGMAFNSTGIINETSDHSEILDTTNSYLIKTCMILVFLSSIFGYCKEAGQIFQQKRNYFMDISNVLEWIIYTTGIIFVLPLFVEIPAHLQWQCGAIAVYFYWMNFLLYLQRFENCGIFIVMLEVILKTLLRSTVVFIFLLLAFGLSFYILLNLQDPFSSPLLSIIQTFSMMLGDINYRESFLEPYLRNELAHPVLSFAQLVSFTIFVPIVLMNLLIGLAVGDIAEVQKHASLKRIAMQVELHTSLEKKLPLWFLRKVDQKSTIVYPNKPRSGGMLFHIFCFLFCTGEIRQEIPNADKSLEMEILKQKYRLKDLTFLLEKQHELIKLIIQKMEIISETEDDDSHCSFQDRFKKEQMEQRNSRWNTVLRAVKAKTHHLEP

IC50 (read-out: hTRPA1 IC50 10 min, 10 minutes incubation with compound before cinnamaldehyde (about EC80)): 10.3 nM | IC50 (read-out: hTRPA1 IC50 90 min, 90 minutes incubation with compound before cinnamaldehyde (about EC80)): 7.5 nM
SMILES: Nc1nc2cccnc2n1Cc1nc([C@@H]2CO[C@@H](c3ccc(Cl)cc3)C2)no1 [Example 155, 3-[[3-[(3R,5R)-5-(4-chlorophenyl)tetrahydro-furan-3-yl]-1,2,4-oxadiazol-5-yl]methyl]imidazo[4,5-b]pyridin-2-amine]
